Laboratory results reported in patent US10285944B2 (ALFASIGMA S.P.A., priority 2005, dated 2019).

Experiments:
[1] = tested on: patients affected by Crohn's disease; test: Clinical multi-center randomised trial versus placebo in Crohn's disease; format: in vivo, human; conditions: 27 patients
From the text: 55 Crohn's disease patients in acute, mild to moderate grade, phase, having CDAI (Crohn Disease Active Index) value between 200 and 300, have been recruited. The primary end point was represented by the percentage of the patients in clinic remission defined as CDAI lower than 150 points at the end of the study. The patients, randomised in two groups: group A, of 27 patients and group B of 28 patients, have been treated for 12 weeks according to the following therapeutic schemes:
Group B: placebo, administrated 2 times in a day in a such quantity to correspond to the content of the dose of the active principle.

[2] = tested on: Crohn's patients characterized by a protein C reactive value higher than normal; test: Crohn's patients with protein C reactive value higher than normal (subgroup of the trial); format: in vivo, human; conditions: subgroup with protein C value higher than normal values; 16 patients treated with rifaximin
[3] = depending on the dose and the treatment duration; cited from earlier work
[4] = CDAI lower than 150 after 12 weeks, rifaximin 800 mg 2 times a day (preparation of example 3)

Structure (SMILES) | therapeutic failure, percentage of the patients ([1]; 12 weeks, rifaximin 800 mg 2 times a day) | Number of clinical remission [1, 4] | clinical remission, percentage of the patients [1, 4] | Number of clinical remission [2] | clinical remission, percentage of the patients [2] | therapeutic failure, percentage of the patients [2] | incidence of side effects [3]
CO[C@H]1/C=C/O[C@@]2(C)Oc3c(C)c(O)c4c(O)c(c5c(nc6cc(C)ccn65)c4c3C2=O)NC(=O)/C(C)=C\C=C\[C@H](C)[C@H](O)[C@@H](C)[C@@H](O)[C@@H](C)[C@H](OC(C)=O)[C@@H]1C [rifaximin] | (3.4%) | 14 | (51.9%) | 10 | (62.5%) | (0%) | –
Cc1ncc([N+](=O)[O-])n1CCO [metronidazole] | – | – | – | – | – | – | 10-20%
